The text below walks through data of paper PMC9027131, “Dual PI3K/Akt Inhibitors Bearing Coumarin-Thiazolidine Pharmacophores as Potential Apoptosis Inducers in MCF-7 Cells” (Pharmaceuticals, 2022).

For one test, the system named is Cyclin D1, p-PI3K, p-Akt. In words: Western blot in MCF-7 cells. It counts as cell-based, human. To be noted: MCF-7, IC50, 48 h, vs control untreated cells. An excerpt:
Cyclin D1 activity is essential for the G1 to S phase transition. Moreover, the PI3K/Akt axis is crucial for cell growth and apoptosis. The effects of VIIb on Cyclin D1 and the PI3K/Akt pathway in MCF-7 cells was investigated adopting reported procedures. […] Herein, Western blot results confirmed our previous findings, highlighting the ability of the novel compound, VIIb, to inhibit the PI3K/Akt signaling pathway. […] Cyclin D1 is a proto-oncogene and a major regulator of cell cycle progression. In addition, Cyclin D1 overexpression has been linked to both breast tumorigenesis and tumor progression as well as to the development of endocrine resistance in breast cancer cells.
Whole-cell protein lysates obtained from both control as well as VIIb-treated (IC50 (µM), for 48 h) MCF-7 cells were resolved by SDS-PAGE, and then immunoblotting was conducted with antibodies against cyclin D, p-Akt, and p-PI3K compared to the housekeeping protein β-Actin.
Western blot analysis was conducted using the following primary antibodies: anti-p-Akt (1:5000; ab81283), anti-Cyclin D1 (1:1000; ab226977), anti-p-PI3K (1:1000; ab278545), and anti-beta-actin (1:1000; ab8227). Firstly, VIIb-treated and untreated cells were rinsed with PBS, and then cold lysis buffer was added to induce cell lysis. After centrifugation, the supernatants were collected, and harvested proteins were quantified by Bradford assay and then resolved on SDS-PAGE followed by electroblotting onto polyvinylidene fluoride membranes. Later, membrane blocking was conducted using 5% skimmed milk in 0.1% Tween-20 in PBS (PBST). Then membranes were incubated with the aforementioned primary antibodies at 4 °C. Following 12-h incubation, the membranes were soaked in PBST thrice followed by 1-h incubation with appropriate secondary antibodies. Antibodies were supplied from Abcam (Cambridge, UK). The signals were visualized with a chemiluminescence ECL kit (Perkin Elmer, Waltham, MA, USA) following the manufacturer’s instructions, and images were obtained using a Biorad Imager.
(A western blot detects proteins with antibodies after separation by electrophoresis.)

The target in a further test is T1, PI3K-α (Homo sapiens, UniProt P42336).
T1 construct: purchased BPS Bioscience, Inc 79781
T1 sequence (P42336 whole entry): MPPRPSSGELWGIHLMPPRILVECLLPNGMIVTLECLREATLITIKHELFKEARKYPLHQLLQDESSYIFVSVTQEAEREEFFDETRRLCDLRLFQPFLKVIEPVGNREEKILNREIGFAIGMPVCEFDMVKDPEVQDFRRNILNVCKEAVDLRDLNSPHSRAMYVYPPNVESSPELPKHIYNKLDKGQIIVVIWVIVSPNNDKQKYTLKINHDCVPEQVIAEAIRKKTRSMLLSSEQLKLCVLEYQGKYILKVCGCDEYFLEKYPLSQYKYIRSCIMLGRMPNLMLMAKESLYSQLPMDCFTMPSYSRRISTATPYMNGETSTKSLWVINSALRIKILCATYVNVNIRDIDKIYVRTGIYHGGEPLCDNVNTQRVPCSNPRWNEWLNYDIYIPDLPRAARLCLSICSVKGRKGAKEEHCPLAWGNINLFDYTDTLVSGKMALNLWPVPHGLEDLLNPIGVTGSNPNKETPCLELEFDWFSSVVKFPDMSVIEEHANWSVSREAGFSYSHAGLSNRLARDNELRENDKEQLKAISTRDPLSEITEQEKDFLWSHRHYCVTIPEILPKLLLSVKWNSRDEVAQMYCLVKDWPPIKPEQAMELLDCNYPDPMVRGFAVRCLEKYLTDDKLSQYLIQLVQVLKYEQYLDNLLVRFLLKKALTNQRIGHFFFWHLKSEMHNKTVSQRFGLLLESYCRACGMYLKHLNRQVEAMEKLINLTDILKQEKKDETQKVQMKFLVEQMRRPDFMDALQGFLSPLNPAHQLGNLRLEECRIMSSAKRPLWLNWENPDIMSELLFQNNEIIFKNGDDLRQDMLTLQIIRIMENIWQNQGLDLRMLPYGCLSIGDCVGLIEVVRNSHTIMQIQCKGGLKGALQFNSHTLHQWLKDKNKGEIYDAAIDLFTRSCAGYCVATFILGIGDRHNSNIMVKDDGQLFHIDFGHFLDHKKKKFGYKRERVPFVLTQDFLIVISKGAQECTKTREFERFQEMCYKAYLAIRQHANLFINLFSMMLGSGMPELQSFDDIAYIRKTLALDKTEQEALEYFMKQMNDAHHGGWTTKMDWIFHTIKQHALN
T1 sequence (P27986 whole entry partner): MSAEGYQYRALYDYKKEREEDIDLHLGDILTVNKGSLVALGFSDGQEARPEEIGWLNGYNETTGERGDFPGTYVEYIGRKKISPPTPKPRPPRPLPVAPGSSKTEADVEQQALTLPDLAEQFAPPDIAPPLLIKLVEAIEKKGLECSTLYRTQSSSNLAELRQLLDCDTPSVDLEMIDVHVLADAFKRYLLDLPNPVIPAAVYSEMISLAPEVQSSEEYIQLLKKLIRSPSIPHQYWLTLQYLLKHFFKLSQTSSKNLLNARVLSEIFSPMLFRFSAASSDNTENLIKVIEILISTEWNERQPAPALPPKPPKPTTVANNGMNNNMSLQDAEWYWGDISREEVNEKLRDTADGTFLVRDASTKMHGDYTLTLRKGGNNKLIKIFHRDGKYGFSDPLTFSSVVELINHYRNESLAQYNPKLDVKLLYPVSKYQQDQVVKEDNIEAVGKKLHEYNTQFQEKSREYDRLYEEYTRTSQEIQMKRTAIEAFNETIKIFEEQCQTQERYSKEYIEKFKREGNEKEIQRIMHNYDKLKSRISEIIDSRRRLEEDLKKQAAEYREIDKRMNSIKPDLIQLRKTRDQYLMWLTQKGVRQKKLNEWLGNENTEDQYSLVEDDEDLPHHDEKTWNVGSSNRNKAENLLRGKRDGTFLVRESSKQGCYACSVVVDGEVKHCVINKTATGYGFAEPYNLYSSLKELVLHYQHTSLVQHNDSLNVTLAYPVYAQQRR
In words: PI3Kα (p110α/p85) enzyme inhibition assay kit. It is filed as biochemical. The conditions noted are these: means ± sd, n = 3; read-out: IC50 (µM) PI3K-α Isoform. An excerpt:
Accumulating evidence highlighted that PI3K signaling pathway upregulation is highly implicated in breast cancer development and disease progression as well as resistance to hormones and cytotoxic therapy. Therefore, it is essential to elucidate the effect of the novel compound, VIIb, on the PI3K/Akt signaling pathway by using in vitro PI3K class 1A enzyme inhibition assay conducted on PI3K-α and PI3K-γ isoforms as well as an Akt-1 enzyme inhibition assay. […] Furthermore, targeting the PI3K-γ isoform in breast cancer could contribute to enhancing the anti-tumor immunity.
The in vitro inhibition of PI3K and Akt kinase activities by VIIb was assessed using a PI3Kα (p110α/p85) assay kit (Catalog #79781; BPS Bioscience, Inc, San Diego, CA, USA), PI3Kγ (p110γ/PIK3R5) assay kit (Catalog #79803; BPS Bioscience, Inc, San Diego, CA, USA), and Akt Kinase Activity assay kit (ab139436; Abcam, Cambridge, UK) following the manufacturer’s instructions as described previously. The results were expressed as IC50 values using dose–response curves and linear regression equations.

In test [1] the test system is MCF 10 non-tumorigenic epithelial cell line. In words: MTT assay in non-cancerous epithelial cells (MCF 10). It is filed as cell-based. The protocol: MCF-7 breast cancer cell line (ATCC® HTB-22™) plus non-tumorigenic epithelial cell line (MCF 10, ATCC® CRL-10317™) were supplied from VACSERA (Cairo, Egypt) and cultured in Dulbecco’s Modified Eagle Medium (Invitrogen-Life Technologies, Carlsbad, CA, USA) with 1% antibiotic solution (streptomycin–penicillin) plus 10% fetal bovine serum (Hyclone) in a 5% (v/v) humidified CO2 incubator at 37 °C.
Firstly, cells were kept in a humidified atmosphere (37 °C, 24 h), and then incubated with serial concentrations of the tested compounds. After 48 h, the medium was aspirated, and then cells were incubated with 5% MTT solution (M-5655; Sigma Aldrich, St. Louis, MO USA) (200 µL/well, 2 h), allowing the dye to metabolize into the colored insoluble formazan complex that was then dissolved in the appropriate solubilization solution (M-8910) (200 µL/well), for 30 min with gentle mixing at room temperature. The UV absorbance was measured using a microplate reader (570 nm), and cell viability was determined with respect to untreated control cells.
Background: Formazan colour is commonly taken as a measure of viable cells.

In the case of `C/C(=N/N=C1/SCC(=O)N1C(=O)c1ccccc1)c1c(O)ccc2c(C)cc(=O)oc12` [VIIb], in the test with Cyclin D1, p-PI3K, p-Akt, the “level of Cyclin D1” value is on record as “effectively suppressed”, the “level of p-Akt” value was “effectively suppressed” and the “level of p-PI3K” value was “effectively suppressed”. Moreover, the IC50 on PI3K-α was determined as 3.7 ± 0.19 µM. Besides, the IC50 in test [1] (Homo sapiens, MCF10, MTT assay, non-cancerous epithelial cells, means ± sd, n = 3) was found to be 9.52 ± 0.6 µM. Moreover, the “Selectivity Index MCF-10/MCF-7” value in test [1] (ratio of IC50 MCF-10 to IC50 MCF-7) came to 9.24.

For orientation: IC50 means the point on the concentration scale where inhibition reaches its midpoint.
